In publication PMC6017654, “Ionic Liquid-Promoted Synthesis of Novel Chromone-Pyrimidine Coupled Derivatives, Antimicrobial Analysis, Enzyme Assay, Docking Study and Toxicity Study” (Molecules : A Journal of Synthetic Chemistry and Natural …, 2018):

Columns and labels:
DdlB from E.coli = DdlB from E.coli (Escherichia coli, UniProt P07862); experiment: D-Alanine-D-alanine ligase (DdlB) enzyme inhibition, malachite green method; format: biochemical; conditions: 37 °C, 30 min incubation, 5% DMSO
Procedure: The key enzyme involved in the peptidoglycan biosynthesis is D-alanine-D-alanine ligase (Ddl), making it an important target for drug discovery. Inhibition of DdlB as an essential enzyme in either Gram-positive or Gram-negative organisms leads to the loss of cell shape and integrity followed by bacterial death. The synthesized derivatives 4(a–f) and 6(a–f) were tested for their inhibitory activity on DdlB from E.coli. The results are presented as IC50 values.
The D-Ala-adding activity of DdlB ligase was monitored by the detection of orthophosphate generated during the reaction based on the colorimetric malachite green method described by Walsh et al.. […] All the compounds were soluble in the assay mixture containing 5% DMSO. After 30 min of incubation, 100 µL Biomol reagent was added. After 5 min, absorbance was read at 650 nm. Residual activity was calculated with respect to a similar assay without inhibitor. To exclude possible non-specific (promiscuous) inhibitors, representative compounds 4(a–f) and 6(a–f) were also tested in the presence of Tween (0.003%), Triton X-114 (0.005%), and SDS (420 µM), as described by McGovern et al.. No significant differences were found when compared to measurements without detergents.

Escherichia coli 1411 = experiment: In vitro antibacterial activity (MIC100, two fold serial dilution, NCCLS); format: cell-based; conditions: Escherichia coli, 1411, 24 h, read-out: MIC100
Procedure: (§1) All the synthesized compounds 4(a–f) and 6(a–f) were screened for their in vitro antibacterial activity against Staphylococcus aureus (NCIM-2901), Escherichia coli 1411 (standard laboratory strains) and Escherichia coli SM1411 (an acrAB deficient derivative of 1411). Minimum inhibitory concentration (MIC100) values were determined using methods recommended by National Committee for Clinical Laboratory Standards (NCCLS). Dimethyl sulfoxide (DMSO) was used as solvent control.
(§2) All the synthesized compounds 4(a–f) and 6(a–f) were screened for their in vitro antibacterial activity against Staphylococcus aureus (NCIM-2901) and Escherichia coli 1411 (standard laboratory strains) and Escherichia coli SM1411 (an acrAB deficient derivative of 1411). Minimum inhibitory concentration (MIC100) values were determined using the method recommended by National Committee for Clinical Laboratory Standards (NCCLS). In vitro antibacterial activities of the synthesized compounds 4(a–f) and 6(a–f) were tested in Nutrient Broth (NB) for Bacteria by the two fold serial dilution method. Seeded broth (broth containing microbial spores) was prepared in NB from 24 h old bacterial cultures on nutrient agar (Hi-media) at 37 ± 1 °C. The bacterial suspension was adjusted with sterile saline to a concentration of […]. The synthesized compounds and standard drug D-cycloserine were prepared by two fold serial dilutions to obtain the required concentrations. The tubes were incubated in BOD incubators at 37 ± 1 °C for bacteria. The MICs were recorded by visual observations after 24 h (for bacteria) of incubation.

[1] = system: Escherichia coli SM1411 (an acrAB deficient derivative of 1411); experiment: as above; format: cell-based; conditions: 24 h, read-out: MIC100
Procedure: as §1, §2

[2] = system: Staphylococcus aureus (NCIM-2901); experiment: as above; format: cell-based; conditions: Staphylococcus aureus, NCIM2901, 24 h, read-out: MIC100, S. aureus NCIM-2901, average of three readings
Procedure: as §1, §2

[3] = system: ergosterol biosynthesis in Candida albicans (NCIM-3471); experiment: Ergosterol extraction and quantitation assay (UV sterol profile); format: cell-based; conditions: C. albicans NCIM3471
Procedure: Changes in this absorption pattern are therefore indicative of interference in the synthetic pathway of ergosterol.
A single Candida albicans (NCIM-3471) colony from an overnight Sabouraud dextrose agar plate culture was used to inoculate 50 mL of Sabouraud dextrose broth for control and for various concentrations of the molecules. The cultures were incubated for 16 hours and harvested by centrifugation at 2700 rpm (856× g) for five min. The net weight of the cell pellet was determined. Three mL of 25% alcoholic potassium hydroxide solution was added to each pellet and vortex mixed for one min. Cell suspensions were transferred to sterile borosilicate glass screw-cap tubes and were incubated in an 85 °C water bath for one hour. Following incubation, the tubes were allowed to cool. Sterols were then extracted by addition of a mixture of 1 mL of sterile distilled water and 3 mL of n-heptane followed by vigorous vortex mixing for 3 min. The heptane layer was transferred to a clean borosilicate glass screw-cap tube and stored at −20 °C. Prior to analysis, 0.6 mL aliquot of sterol extract was diluted five fold in 100% ethanol and scanned spectrophotometrically between 240 nm and 300 nm with a spectrophotometer (UV-Visible Spectrophotometer 2100, Thermo Fischer Scientific, Waltham, MA, USA). The presence of ergosterol and the late sterol intermediate 24(28)-dehydroergosterol (DHE) in the extracted sample results in a characteristic four-peaked curve. The absence of detectable ergosterol in extracts was indicated by a flat line.
Sterols were extracted from cells and spectral profiles between 240 and 300 nm were determined.

[4] = In vitro cytotoxicity, Sulforhodamine B (SRB) assay; format: cell-based, human; conditions: human, range 80 to 0.55 μg/mL
Description: (§3) Toxicity scrutiny of synthesized compounds at the early phase of research paves the way to clinical trials and reduces the failure of potential therapeutics at later stages of clinical trials. To scrutinize the safety and selectivity of antimicrobial activity of the synthesized compounds, the compounds 6c and 6f were appraised for their toxicity against HeLa (a human cervical cancer cell line) and PC-3 (human prostate cancer cell line) by the Sulforhodamine B (SRB) assay using adriamycin as a standard drug.
(§4) The images were captured using an Eclipse Ti-S Inverted Research Microscope (Nikon, Tokyo, Japan). Image processing software used was NIS-Elements.

[5] = system: HeLa (human cervical cancer cell line); experiment: as above; format: cell-based; conditions: up to 80 µg/mL
Description: as §3, §4

COc1ccc2occ(C3NC(=S)NC(C)=C3C(=O)NN)c(=O)c2c1 (stereo not drawn) [Compound 6f, 4-(6-Methoxy-4-oxo-4H-chromen-3-yl)-6-methyl-2-thioxo-1,2,3,4-tetrahydropyrimidine-5-carbohydrazide]
IC50 (DdlB from E.coli): > 400 µM
MIC (Escherichia coli 1411): > 60 µg/mL
MIC [1]: > 60 µg/mL
MIC [2]: > 200 µg/mL
ergosterol peak in UV sterol profile at the MIC value ([3]; 6f 24 µg/mL, miconazole 25 µg/mL, 281.5 nm): almost a flat peak
ergosterol peak at 281.5 nm with increasing concentration ([3]; MIC/16 to MIC (1.5 to 24 µg/mL)): intensity of the ergosterol peak at 281.5 nm decreases
GI50 ([4]; HeLa cells, SRB assay): > 80 µg/mL
GI50 ([4]; PC-3 cells): > 80 µg/mL
cell inhibition [5]: cell inhibition did not occur
